In ChEMBL document CHEMBL1152477, “Evaluation of substrate and inhibitor properties of a novel MDR modulator H17 towards transmembrane efflux pumps” (Eur J Med Chem, 2009):

Columns and labels:
[1] = organism: Rattus norvegicus; experiment: Inhibition of P-glycoprotein in White Wistar rat jejunum assessed as permeability at 30 uM after 30 mins by HPLC analysis; type: tissue-based
[2] = organism: Rattus norvegicus; experiment: Inhibition of P-glycoprotein in White Wistar rat ileum assessed as permeability at 30 uM after 30 mins by HPLC analysis; type: tissue-based
[3] = organism: Rattus norvegicus; experiment: Inhibition of P-glycoprotein in White Wistar rat colon assessed as permeability at 30 uM after 30 mins by HPLC analysis
[4] = target: T1, Multidrug resistance-associated protein 1 (Rattus norvegicus, UniProt Q8CG09); experiment: Inhibition of MRP1/MRP2 in White Wistar rat jejunum assessed as increase in drug uptake at 1 mM after 30 mins by HPLC analysis; type: tissue-based; settings: 0.5 h, 1000 µM
T1 sequence (Q8CG09 whole entry): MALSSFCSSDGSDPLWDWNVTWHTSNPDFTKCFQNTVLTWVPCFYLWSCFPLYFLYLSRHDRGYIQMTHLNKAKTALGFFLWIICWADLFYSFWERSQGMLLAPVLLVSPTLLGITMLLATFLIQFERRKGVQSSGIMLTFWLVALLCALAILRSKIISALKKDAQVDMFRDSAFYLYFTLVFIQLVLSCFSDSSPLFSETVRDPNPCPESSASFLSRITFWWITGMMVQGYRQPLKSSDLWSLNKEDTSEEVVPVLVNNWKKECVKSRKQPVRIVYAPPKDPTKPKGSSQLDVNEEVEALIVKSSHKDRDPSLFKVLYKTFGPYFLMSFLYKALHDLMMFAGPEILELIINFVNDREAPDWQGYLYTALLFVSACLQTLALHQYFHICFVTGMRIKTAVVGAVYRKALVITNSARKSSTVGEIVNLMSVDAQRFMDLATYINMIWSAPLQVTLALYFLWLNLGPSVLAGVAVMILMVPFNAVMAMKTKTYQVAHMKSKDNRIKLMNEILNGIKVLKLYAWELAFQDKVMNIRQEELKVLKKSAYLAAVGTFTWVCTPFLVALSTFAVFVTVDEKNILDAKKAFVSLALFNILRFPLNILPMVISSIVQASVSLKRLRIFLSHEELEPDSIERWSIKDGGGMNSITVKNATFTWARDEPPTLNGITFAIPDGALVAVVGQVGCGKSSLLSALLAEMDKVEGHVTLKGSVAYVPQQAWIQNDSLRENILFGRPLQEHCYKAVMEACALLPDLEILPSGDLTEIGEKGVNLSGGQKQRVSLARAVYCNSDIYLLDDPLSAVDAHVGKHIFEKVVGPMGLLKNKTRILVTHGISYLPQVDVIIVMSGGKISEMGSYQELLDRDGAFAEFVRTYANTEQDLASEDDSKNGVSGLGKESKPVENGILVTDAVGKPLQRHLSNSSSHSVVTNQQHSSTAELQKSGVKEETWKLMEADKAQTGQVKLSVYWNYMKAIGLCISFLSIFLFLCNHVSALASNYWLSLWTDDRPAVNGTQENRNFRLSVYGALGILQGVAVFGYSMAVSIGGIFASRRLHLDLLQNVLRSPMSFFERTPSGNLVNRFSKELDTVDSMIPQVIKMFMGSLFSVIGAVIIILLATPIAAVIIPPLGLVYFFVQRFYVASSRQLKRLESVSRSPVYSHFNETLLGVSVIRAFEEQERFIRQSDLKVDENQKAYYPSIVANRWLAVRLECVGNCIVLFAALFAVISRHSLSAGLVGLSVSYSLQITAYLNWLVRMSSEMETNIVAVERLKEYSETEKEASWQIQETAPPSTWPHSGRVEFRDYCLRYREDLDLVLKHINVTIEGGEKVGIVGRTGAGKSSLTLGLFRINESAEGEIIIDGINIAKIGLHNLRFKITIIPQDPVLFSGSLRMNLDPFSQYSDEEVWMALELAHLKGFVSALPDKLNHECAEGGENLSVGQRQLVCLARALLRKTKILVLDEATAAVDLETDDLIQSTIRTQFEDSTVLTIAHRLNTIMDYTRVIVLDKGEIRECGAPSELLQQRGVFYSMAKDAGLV

[5] = target: T1, Multidrug resistance-associated protein 1; experiment: Inhibition of MRP1/MRP2 in White Wistar rat ileum assessed as increase in drug uptake at 1 mM after 30 mins by HPLC analysis; type: tissue-based; settings: 0.5 h, 1000 µM
[6] = target: T1, Multidrug resistance-associated protein 1; experiment: Inhibition of MRP1/MRP2 in White Wistar rat colon assessed as increase in drug uptake at 1 mM after 30 mins by HPLC analysis; settings: 0.5 h, 1000 µM

Row | permeability [3] | Drug uptake [4] | Drug uptake [5] | Drug uptake [6] | SMILES | permeability [1] | permeability [2]
1 | 2.05 ×10⁻⁴ cm/s |  |  |  | OCC12C3C4C1N(Cc1ccccc1)C1(CO)C(CO)(C4c4ccccc4)C(N3Cc3ccccc3)C1(CO)C2c1ccccc1 (stereo unspecified) | 2.36 ×10⁻⁴ cm/s | 2.4 ×10⁻⁴ cm/s
2 |  | 24% | 13% | 13% | COc1ccc2c(c1)c(CC(=O)O)c(C)n2C(=O)c1ccc(Cl)cc1 [INDOMETHACIN] |  | 
